Experimental data from patent publication US5034309A, “Naphthalocyanine derivatives and their use in optical recording medium” (Hitachi Chemical Co., Ltd., priority 1987, dated 1991).

Key:
[1] = transmission and 5° regular-reflection spectra of spin-coated organic film on glass plate; assay type: physicochemical; settings: 2 parts in 98 parts 1,1,2-trichloroethane
Experimental: A solution composed of 2 parts by weight of bis(tri-n-propylsiloxy)silicon-tetra(n-dodecylthio)naphthalocyanine [illustrative compound (100)] and 98 parts by weight of 1,1,2-trichloroethane was coated on a glass plate by a spin coating method and dried at about 80° C. for about 15 minutes to form an organic film. Transmission spectrum and 5° regular-reflection spectrum of the organic film of the illustrative compound are shown in FIG. 39 and FIG. 40, respectively.
An organic film of the same vanadyl-tetra(t-butyl) naphthalocyanine as used in Comparative Example 1 was formed on a glass plate in the same manner as in Test Example 2, and transmission spectrum (FIG. 43) and 5° regular-reflection spectrum (FIG. 44) of the organic film were measured.
A solution composed of 1 part by weight of each of the naphthalocyanine derivatives (127), (99) and (102) exemplified and 99 parts by weight of tetrahydrofuran was coated on a glass plate by a spin coating method and dried at about 80° C. for about 15 minutes to form an organic film. Transmission spectra and 5° regular-reflection spectra of the thus formed organic films of the naphthalocyanine derivatives are summarized in FIG. 45 and FIG. 46, respectively.

[2] = electronic spectra in various solvents; assay type: physicochemical
Experimental: Bis(tri-n-propylsiloxy)silicon-tetra(ndodecylthio)n-aphthalocyanine [illustrative compound (100)] was dissolved in various solvents and its electronic spectra were measured. The electronic spectra in chloroform, tetrahydrofuran, acetone, toluene and hexane are shown in […], FIG. 35, FIG. 36, FIG. 37 and FIG. 38, respectively.
Vanadyl-tetra(t-butyl)-naphthalocyanine synthesized according to the method described in Zhurnal Obshchei Khimii, vol. 42, p. 696 (1972) was dissolved in each of chloroform and benzene and its electronic spectra were measured. The electronic spectra in chloroform and benzene are shown in FIG. 41 and FIG. 42, respectively.

Substance: Vanadyl-tetra(t-butyl)-naphthalocyanine
- light-absorbing ability in the diode laser region (780 to 830 nm) [1]: did not have very high light-absorbing ability
- reflectivity in the diode laser region (780 to 830 nm) [1]: ≤ 20%
- change of absorption with concentration ([2]; electronic spectra in chloroform and benzene): The higher the concentration, the weaker the absorption near 800 nm and the stronger the absorption at 720 to 730 nm
- dependence of absorption waveform on kind of solvent and concentration ([2]; electronic spectra in solution): varied depending on the kind of solvent and the conventration of solution
